One test deals with mice and rats. Particulars: aspirin 200-600 mg/kg, dose range toxic to humans; cited from earlier work.
A further test has as its system THP1 cells. In words: LPS stimulation of THP1 cells, real-time PCR for pro-IL-1β. In kind it is cell-based, human. The settings on record: overnight with aspirin (1.5 mM, 0.15 mM), then LPS 10 μg/ml for 8 hours; P<0.05.
A further test relates to wild-type mice. The experiment in a line: Acetaminophen (APAP) induced hepatotoxicity in mice (500 mg/kg ip). The class given is in vivo, mouse. The method, then:
• Animals. C57BL/6 mice were purchased from commercial sources. NALP3 −/−, IL-18 −/− ASC −/−, IPAF −/− and TLR9−/− mice were backcrossed nine generations onto the C57BL/6 background. Caspase 1 −/− mice were backcrossed 5-6 generations onto the C57BL/6 background. These mice have been described previously(39, 40). IL-1β was neutralized in by using the anti-IL-1β antibody from clone B 122 (a gift of R. Schreiber, Washington University) at a dose of 0.2 mg/mouse iv twice a day for a total of 48 hours after giving APAP. Control mice received Armenian hamster isotype control antibody. For survival experiments animals were euthanized when they became moribund using criteria of lack of response to stimuli or lack of righting reflex. Animal protocols were approved by the Yale University animal care and use committee. [include references for IPAF−/− (M. Lara-Tejero et al. JEM 2006) and IL-18−/−. Need to add TLR9−/− and TLR3−/−] • Acetaminophen induced hepatotoxicity. APAP (Sigma, MO) solution was made fresh for each experiment in PBS at 20 mg/ml and heated in a water bath to 55° C. to dissolve. APAP was dosed at 500 mg/kg and injected I.P after 15 hrs of starvation. Animals were euthanized by ketamine/xylazine injection at 12 hours for collection of serum, isolation of liver lymphocytes or collection of liver tissue for histology, or they were observed every four hours for 72 hours until they reached criteria for euthanasia (lack of response to stimuli or lack of righting reflex). • Aspirin/clopidogrel/SC-560. Aspirin (Sigma, MO) was made fresh for each experiment. For dosing prior to APAP it was dissolved in single deionized water at 60 mg/l and heated to 42° C. with rapid stirring to dissolve, then rapidly placed in an ice water bath to cool. Aspirin in water was given to the mice 60-72 hours prior to APAP injection. Assuming water consumption of 3-5 ml per day this dose would be equivalent to a 300-500 mg dose in an 80 kg adult human. For co-administration of APAP and aspirin, aspirin was gavaged at a dose of 6 mg/kg in a volume of 100 ul of water immediately after ip injection of APAP. Clopidogrel (Gilead Pharmaceuticals, CA.) was dissolved in PBS at 6 mg/ml and administered by gavage of 100 ul, 30 mg/kg, every 24 hours beginning 48 hours prior and ending 24 hours after APAP injection. Cox-1 inhibitor (SC-560). SC-560 (Cayman chemical, MI) was dissolved at 50 mg/ml in DMSO and further dissolved in PBS in order to gavage a dose of 5 mg/kg in 100 ul. It was administered twice per day beginning 60 hours prior to Tylenol and continued for 48 hours after APAP injection as previously established(41). • Uric Acid Peritonitis. Peritonitis was induced with uric acid crystals as previously described by injecting 3 mg of MSU intraperitoneally per mouse(27). Three hours after injection peritoneal lavage was performed on mice euthanized by isoflurane inhalation. Neutrophil infiltration was evaluated by flow cytometry. The percent of Gr-1 (BD Pharmingen, CA) positive cells was multiplied by the total cell counts. • Liver sinusoidal endothelial cell (LSEC) isolation. After in-situ pronase digestion the non-parenchymal cell suspension is centrifuged for 5 min at 100 g to remove most of the parenchymal cells. This process is repeated until no pellet is observed. The supernatant enriched in LSEC is centrifuged for 10 min at 350 g. The pellet is resuspended in PBS and centrifuged for 10 min at 350 g. The cells are resuspended in PBS and layered (3.3 ml) on the top of two-step percoll gradient (put the 5 ml of 50% percoll at the bottom and put the 6.6 ml of 25% percoll at the top). The gradients are centrifuged at 900 g for 20 min and the intermediate layer included LSEC is collected and cultured in the media (EGM™-2 MV—Microvascular Endothelial Cell Medium-2, CAMBREX, Charles City, Iowa). • ODN2088 and IRS 954 injection.

In a further test the target is T1, NALP3 inflammasome (Mus musculus, UniProt Q8R4B8).
T1 construct: endogenous in cells; host or cells: living C57BL/6 wild-type mice (peritoneal cavity, in vivo)
In words: Uric acid (MSU crystal) peritonitis, model of NALP3 inflammasome activation. In kind it is in vivo. Particulars: low dose aspirin (60 mg/l) in drinking water for three days before MSU 3 mg/mouse ip; lavage after 3 hours; P<0.0001. How it is done:
• Animals. C57BL/6 mice were purchased from commercial sources. NALP3 −/−, IL-18 −/− ASC −/−, IPAF −/− and TLR9−/− mice were backcrossed nine generations onto the C57BL/6 background. Caspase 1 −/− mice were backcrossed 5-6 generations onto the C57BL/6 background. These mice have been described previously(39, 40). IL-1β was neutralized in by using the anti-IL-1β antibody from clone B 122 (a gift of R. Schreiber, Washington University) at a dose of 0.2 mg/mouse iv twice a day for a total of 48 hours after giving APAP. Control mice received Armenian hamster isotype control antibody. For survival experiments animals were euthanized when they became moribund using criteria of lack of response to stimuli or lack of righting reflex. Animal protocols were approved by the Yale University animal care and use committee. [include references for IPAF−/− (M. Lara-Tejero et al. JEM 2006) and IL-18−/−. Need to add TLR9−/− and TLR3−/−] • Acetaminophen induced hepatotoxicity. APAP (Sigma, MO) solution was made fresh for each experiment in PBS at 20 mg/ml and heated in a water bath to 55° C. to dissolve. APAP was dosed at 500 mg/kg and injected I.P after 15 hrs of starvation. […] Neutrophil infiltration was evaluated by flow cytometry. […]

The mark [1] stands for this setting: aspirin pre-treatment, 12 hours after APAP, p<0.03.
The mark [2] stands for this setting: aspirin treatment, after APAP, p<0.005.

The structures appear in SMILES notation. Entries after “also recorded” stand apart in the source; their conditions may differ.

T1 sequence (Q8R4B8 whole entry): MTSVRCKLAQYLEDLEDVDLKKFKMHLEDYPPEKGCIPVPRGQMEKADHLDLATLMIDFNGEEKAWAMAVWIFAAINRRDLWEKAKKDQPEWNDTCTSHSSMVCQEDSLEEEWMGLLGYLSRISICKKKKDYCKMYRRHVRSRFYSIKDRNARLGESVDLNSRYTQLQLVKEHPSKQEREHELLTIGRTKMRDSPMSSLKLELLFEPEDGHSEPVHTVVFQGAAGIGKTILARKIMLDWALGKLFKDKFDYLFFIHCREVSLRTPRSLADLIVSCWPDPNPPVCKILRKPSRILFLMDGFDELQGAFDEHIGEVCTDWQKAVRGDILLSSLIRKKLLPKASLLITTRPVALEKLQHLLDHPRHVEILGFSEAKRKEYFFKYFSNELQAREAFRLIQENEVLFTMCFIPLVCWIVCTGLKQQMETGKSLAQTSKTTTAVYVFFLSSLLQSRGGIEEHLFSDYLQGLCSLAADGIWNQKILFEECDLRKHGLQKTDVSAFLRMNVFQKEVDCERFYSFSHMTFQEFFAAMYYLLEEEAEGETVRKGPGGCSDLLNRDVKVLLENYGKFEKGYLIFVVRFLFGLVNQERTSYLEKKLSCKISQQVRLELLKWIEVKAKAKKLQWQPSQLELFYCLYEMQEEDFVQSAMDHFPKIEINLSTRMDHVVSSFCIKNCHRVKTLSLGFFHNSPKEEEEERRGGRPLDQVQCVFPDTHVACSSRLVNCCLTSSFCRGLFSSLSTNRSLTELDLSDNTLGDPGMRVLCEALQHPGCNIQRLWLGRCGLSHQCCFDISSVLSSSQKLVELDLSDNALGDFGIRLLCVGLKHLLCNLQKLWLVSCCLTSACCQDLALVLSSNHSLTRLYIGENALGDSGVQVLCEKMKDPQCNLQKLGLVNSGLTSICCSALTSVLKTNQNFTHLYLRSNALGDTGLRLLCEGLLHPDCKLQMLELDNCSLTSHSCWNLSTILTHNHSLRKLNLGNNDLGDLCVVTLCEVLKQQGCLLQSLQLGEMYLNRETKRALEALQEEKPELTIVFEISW

In the case of `CC(=O)Oc1ccccc1C(=O)O` [aspirin, acetylsalicylic acid], in the test on mice and rats, the “liver injury from APAP” value was “reduce liver injury” and the “survival from APAP” value was “not improve survival”. The “pro-IL-1β transcript up-regulation by LPS” value in the test with THP1 cells is “reduced”. Further, in the test on wild-type mice (ASA in drinking water, after APAP, p<0.02), the “serum IL-1β levels (ELISA)” value is on record as “significant reduction”. The “survival after APAP” value with wild-type mice (aspirin 60 mg/l in drinking water for 3 days before APAP 500 mg/kg ip, n=17 vs control n=13, P<0.02) was “markedly improved survival”. The survival in the test on wild-type mice (aspirin given concordantly with APAP, 6 mg/kg by gavage immediately after APAP, control 22% ±19%, P<0.04) is given as 43% ±11%. For the same compound, the “liver histology (H&E), liver injury and hemorrhage” value with wild-type mice (aspirin in drinking water for three days before APAP, 12 hours after APAP) is “markedly improved; also recorded: significant reduction in APAP induced liver injury and hemorrhage”. Also, in the test on wild-type mice (setting [1]), the “pro-IL-1β message, whole liver (real-time PCR)” value is given as “reduced to normal levels” and the “pro-IL-18 message, whole liver (real-time PCR)” value is recorded as “reduced to normal levels”. Also, in the test on wild-type mice (aspirin pre-treatment, 12 hrs after APAP, P<0.04), the “serum ALT” value is “significantly lower”. Also, in the test on wild-type mice (setting [2]), the “IFN-γ expression, whole liver (real-time PCR)” value was “reduced” and the “TNF-α expression, whole liver (real-time PCR)” value is listed as “reduced”. Further, the “neutrophil exudates (Gr-1 positive neutrophils in peritoneal lavage)” value on NALP3 inflammasome is on record as “eightfold reduction”.

Take `COC(=O)[C@H](c1ccccc1Cl)N1CCc2sccc2C1` [clopidogrel]: the “survival after APAP (protection against APAP toxicity)” value in the test with wild-type mice (clopidogrel 30 mg/kg gavage every 24 hrs from 48 hours before to 24 hours after APAP, n=15 vs PBS n=15, P<0.31) is given as “did not protect”.

As to `COc1ccc(-n2nc(C(F)(F)F)cc2-c2ccc(Cl)cc2)cc1` [SC-560], in the test with wild-type mice (SC-560 5 mg/kg gavage twice daily from 60 hours before to 48 hours after APAP, n=10 vs PBS n=10, P<0.97), the “survival after APAP (protection against APAP toxicity)” value is “did not protect”.

Values taken from US20100016262A1, “Compositions and methods for reducing hepatotoxicity associated with drug administration and treating non-alcoholic fatty liver disease, non-alcoholic steatohepatitis and associated cirrhosis” (YALE UNIVERSITY, priority 2007, published 2010).
